Test results published in ChEMBL document CHEMBL4602730, “In Vitro and in Vivo Evaluation of Membrane-Active Flavone Amphiphiles: Semisynthetic Kaempferol-Derived Antimicrobials against Drug-Resistant Gram-Positive Bacteria” (J Med Chem, 2020).
Values after ≈ are worked out from the molar mass of the structure shown.

Assays:
Staphylococcus aureus [1] = experiment: Antibacterial activity against methicillin-resistant Staphylococcus aureus N315 assessed as inhibition of bacterial growth incubated for 24 hrs by broth microdilution method; format: functional; settings: N315, 24 h
[2] = Induction of hemolysis in rabbit RBC incubated for 1 hr; format: cell-based, Oryctolagus cuniculus, Erythrocyte; settings: rabbit red blood cells (erythrocytes)
Staphylococcus aureus [3] = experiment: Antibacterial activity against methicillin-resistant Staphylococcus aureus NCTC 10442 assessed as inhibition of bacterial growth incubated for 24 hrs by broth microdilution method; format: functional; settings: NCTC 10442, 24 h
Staphylococcus aureus [4] = experiment: Antibacterial activity against Staphylococcus aureus ATCC 29213 assessed as inhibition of bacterial growth incubated for 24 hrs by broth microdilution method; format: functional; settings: ATCC 29213, 24 h

SMILES	MIC (Staphylococcus aureus [1]) [µM]	HC50 at 1 h [2] [µM]	MIC (Staphylococcus aureus [3]) [µM]	MIC (Staphylococcus aureus [4]) [µM]
CCN(CC)CCCCCCOc1c(-c2ccc(OCC=C(C)C)cc2)oc2cc(OCC=C(C)C)cc(O)c2c1=O	10.8 (≈ 6.24 µg/mL)	83.8	10.8 (≈ 6.24 µg/mL)	10.8 (≈ 6.24 µg/mL)
CCCC[N+](C)(CCCC)CCCOc1c(-c2ccc(OCC=C(C)C)cc2)oc2cc(OCC=C(C)C)cc(O)c2c1=O	17.1	46.9	34.1	17.1
CCCNCCCOc1c(-c2ccc(OCC=C(C)C)cc2)oc2cc(OCC=C(C)C)cc(O)c2c1=O	6 (≈ 3.13 µg/mL)	49.8	12 (≈ 6.26 µg/mL)	24 (≈ 12.5 µg/mL)
CCCCCOc1ccc(-c2oc3cc(OCCCCC)cc(O)c3c(=O)c2O)cc1	> 117	> 469	> 117	> 117
CC(C)=CCOc1ccc(-c2oc3cc(OCC=C(C)C)cc(O)c3c(=O)c2OCC(=O)NCCCN(C)C)cc1	11.1 (≈ 6.27 µg/mL)	287	22.1 (≈ 12.5 µg/mL)	11.1 (≈ 6.27 µg/mL)
CCCCCCCOc1ccc(-c2oc3cc(OCCCCCCC)cc(O)c3c(=O)c2OCCCN(CC)CC)cc1	> 83.9	> 336	> 83.9	> 83.9
CC(C)=CCOc1ccc(-c2oc3cc(OCC=C(C)C)cc(O)c3c(=O)c2OCCCN2CCCC2)cc1	11.7 (≈ 6.24 µg/mL)	> 375	23.4 (≈ 12.5 µg/mL)	23.4 (≈ 12.5 µg/mL)
COC(=O)[C@H](CCCNC(=N)N)NC(=O)[C@H](CCCNC(=N)N)NC(=O)COc1c(-c2ccc(OCC=C(C)C)cc2)oc2cc(OCC=C(C)C)cc(O)c2c1=O	3.9 (≈ 3.15 µg/mL)	82.5	3.9 (≈ 3.15 µg/mL)	3.9 (≈ 3.15 µg/mL)
CC(C)=CCOc1ccc(-c2oc3cc(OCC=C(C)C)cc(O)c3c(=O)c2OCCCN2CCOCC2)cc1	> 91	> 364	> 91	> 91
CCN(CC)CCCCCCCCOc1c(-c2ccc(OCC=C(C)C)cc2)oc2cc(OCC=C(C)C)cc(O)c2c1=O	20.6 (≈ 12.5 µg/mL)	29.4	82.5 (≈ 50 µg/mL)	82.5 (≈ 50 µg/mL)
CCN(CC)CCCCCCCCCCOc1c(-c2ccc(OCC=C(C)C)cc2)oc2cc(OCC=C(C)C)cc(O)c2c1=O	> 78.9	> 316	> 78.9	> 78.9
CCCCCCCOc1ccc(-c2oc3cc(OCCCCCCC)cc(O)c3c(=O)c2O)cc1	> 104	> 414	> 104	> 104
CCN(CC)CCOc1c(-c2ccc(OCC=C(C)C)cc2)oc2cc(OCC=C(C)C)cc(O)c2c1=O	95.8 (≈ 50 µg/mL)	> 383	95.8 (≈ 50 µg/mL)	95.8 (≈ 50 µg/mL)
CC(C)=CCOc1ccc(-c2oc3cc(OCC=C(C)C)cc(O)c3c(=O)c2OCCCN2CCSCC2)cc1	> 88.4	> 354	> 88.4	> 88.4
CCN(CC)CCCNC(=O)COc1c(-c2ccc(OCC=C(C)C)cc2)oc2cc(OCC=C(C)C)cc(OCC(=O)NCCCN(CC)CC)c2c1=O	> 65.5	> 262	> 65.5	> 65.5
CCCCN(CCCC)CCCOc1c(-c2ccc(OCC=C(C)C)cc2)oc2cc(OCC=C(C)C)cc(O)c2c1=O	> 84.5	> 338	> 84.5	> 84.5
CC(C)=CCOc1ccc(-c2oc3cc(OCC=C(C)C)cc(OCC(=O)NCCCN(C)C)c3c(=O)c2OCC(=O)NCCCN(C)C)cc1	70.7 (≈ 50 µg/mL)	> 283	70.7 (≈ 50 µg/mL)	35.4 (≈ 25 µg/mL)
CCCCCCCCCOc1ccc(-c2oc3cc(OCCCCCCCCC)cc(O)c3c(=O)c2O)cc1	> 92.8	> 371	> 92.8	> 92.8
CCCN(CCC)CCCOc1c(-c2ccc(OCC=C(C)C)cc2)oc2cc(OCC=C(C)C)cc(O)c2c1=O	> 88.7	> 355	> 88.7	> 88.7
